In US7915291B2, “Hepatitis C virus inhibitors” (Bristol-Myers Squibb Company, priority 2002, dated 2011):
Where two headings read alike, the source gives them in different places.

What was measured:
[1] = target: HCV NS3/4A protease complex, BMS strain (UniProt P27958, C1454S/C1711G, species not given/STRAIN_BMS); test: Recombinant HCV NS3/4A protease complex FRET peptide assay (BMS strain); type: biochemical, HCV genotype 1a
Procedure, shortened: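 Percent inhibition taken from the linear-range fluorescence slope relative to uninhibited control, read kinetically for about 15 min at 25° C. Enzyme (2-3 nM, BMS NS3/4A complex, lysine-tailed, Ni-NTA purified) met compound for 1 min before 2 μM FRET depsipeptide substrate started cleavage.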

[2] = tested on: HCV replicon in Huh7 cells; test: HCV replicon cell-based assay; design: species or system HCV strain 1B; settings: HCV replicon, Huh7 cells, read-out: EC50 range
[3] = NS3/4A BMS strain; read-out: IC50 range

Molecule `C=CC1C[C@]1(NC(=O)[C@@H]1C[C@@H](Oc2cc3c(Cl)nccc3c3c2OCO3)CN1C(=O)[C@@H](NC(=O)OC(C)(C)C)C(C)(C)C)C(=O)NS(=O)(=O)C1CC1` (stereo partly drawn) [Compound 212, BOCNH-P3(L-t-BuGly)-P2[(4R)-(6-Chloro-1,3-dioxa-7aza -cyclopenta[α]naphthalen-4-oxo)-S-proline]-P1(1R,2S VinylAcca)-CONHSO2Cyclopropane] has an IC50 [1, 3] of less than 100 nM and an EC50 ([2]; Hepatitis C virus, Huh-7) of less than 100 nM.
In the case of `C=C[C@@H]1C[C@]1(NC(=O)[C@@H]1C[C@@H](Oc2nccc3cc(OC)ccc23)CN1C(=O)C(NC(=O)OC(C)(C)C)C(C)c1ccccc1)C(=O)NS(=O)(=O)C1CC1` (single isomer, unassigned) [Compound 136], the IC50 [1, 3] is reported as less than 100 nM and the EC50 [2] is reported as 100 to 1000 nM.
`C=CC1C[C@]1(NC(=O)[C@@H]1C[C@@H](COc2cncc(-c3ccsc3)c2)CN1C(=O)[C@@H](NC(=O)OC)C(C)(C)C)C(=O)NS(=O)(=O)C1CC1` (some centres unmarked) [Compound 347] showed an IC50 ([1]; read-out: IC50 range; NS3/4A BMS strain) of 100 to 1000 nM and an EC50 ([2]; Hepatitis C virus, Huh-7) of 10000 to 100000 nM.
`C=C[C@@H]1C[C@]1(NC(=O)[C@@H]1C[C@@H](Oc2nccc3ccccc23)CN1C(=O)[C@@H](NC(=O)Oc1ccc(OC)cc1)C(C)(C)C)C(=O)NS(=O)(=O)C1CC1` [Compound 123] was tested, and the IC50 [1, 3] was less than 100 nM and the EC50 ([2]; Hepatitis C virus, Huh-7) was 100 to 1000 nM.
`C=C[C@@H]1C[C@]1(NC(=O)[C@@H]1C[C@@H](Oc2cc(C3CC3)nc3cc(OC)ccc23)CN1C(=O)[C@@H](NC(=O)OC(C)(C)C)C(C)(C)C)C(=O)NS(=O)(=O)C1CC1` [Compound 373] was tested, and the IC50 [1, 3] was less than 100 nM and the EC50 ([2]; Hepatitis C virus, Huh-7) was less than 100 nM.
`C=C[C@@H]1C[C@]1(NC(=O)[C@@H]1C[C@@H](Oc2nccc3cc(OC)ccc23)CN1C(=O)[C@H](CC(=O)OC)NC(=O)OC(C)(C)C)C(=O)NS(=O)(=O)C1CC1` [Compound 138] gave an IC50 [1, 3] of less than 100 nM and an EC50 ([2]; Hepatitis C virus, Huh-7) of less than 100 nM.
With `C=C[C@@H]1C[C@]1(NC(=O)[C@@H]1C[C@@H](Oc2nccc3cc(OC)ccc23)CN1C(=O)[C@@H](NC(=O)OC(C)(C)C)C(C)(C)C)C(=O)NS(=O)(=O)C1CC1` [Compound 11] the IC50 [1, 3] was less than 100 nM and the EC50 ([2]; Hepatitis C virus, Huh-7) was less than 100 nM.
`C=C[C@@H]1C[C@]1(NC(=O)[C@@H]1C[C@@H](Oc2nccc3c4c(ccc23)OCCO4)CN1C(=O)[C@@H](NC(=O)OC(C)(C)C)C(C)(C)C)C(=O)NS(=O)(=O)C1CC1` [Compound 286] gave an IC50 [1, 3] of less than 100 nM and an EC50 ([2]; Hepatitis C virus, Huh-7) of less than 100 nM.
In the case of `CC[C@@H]1C[C@]1(NC(=O)[C@@H]1C[C@@H](Oc2nccc3c(Cl)cccc23)CN1C(=O)[C@@H](NC(=O)OC(C)(C)C)C(C)(C)C)C(=O)NS(=O)(=O)C1CC1` [Compound 294], the IC50 [1, 3] is reported as less than 100 nM and the EC50 ([2]; Hepatitis C virus, Huh-7) is reported as 100 to 1000 nM.
`C=CC1C[C@]1(NC(=O)[C@@H]1C[C@@H](Oc2nc3c(c4ccccc24)CCC3)CN1C(=O)[C@@H](NC(=O)OC(C)(C)C)C(C)(C)C)C(=O)NS(=O)(=O)C1CC1` (stereo partly drawn) [Compound 215, BOCNH-P3(L-t-BuGly)-P2[(1R)-(2,3-dihydro-1 H-4aza -cyclopenta[α]naphthalen-5-yloxy)-S-proline]-P1(1R,2S VinylAcca)-CONHSO2Cyclopropane] was tested, and the IC50 [1, 3] was less than 100 nM and the EC50 ([2]; Hepatitis C virus, Huh-7) was less than 100 nM.
`C=C[C@@H]1C[C@]1(NC(=O)[C@@H]1CC(Oc2nccc3cc(OC)ccc23)CN1C(=O)[C@@H](NC(=O)OC(C)(C)c1ccc(C(F)(F)F)cc1)C(C)(C)C)C(=O)NS(=O)(=O)C1CC1` (some centres unmarked) [Compound 73] was tested, and the IC50 [1, 3] was less than 100 nM and the EC50 ([2]; Hepatitis C virus, Huh-7) was 100 to 1000 nM.
Molecule `C=C[C@@H]1C[C@]1(NC(=O)[C@@H]1C[C@@H](Oc2nc(-c3ccoc3)cc3cc(OC)ccc23)CN1C(=O)[C@@H](NC(=O)OC(C)(C)C)C(C)(C)C)C(=O)NS(=O)(=O)C1CC1` [Compound 41] has an IC50 [1, 3] of less than 100 nM and an EC50 ([2]; Hepatitis C virus, Huh-7) of less than 100 nM.
Molecule `C=CC1C[C@]1(NC(=O)[C@@H]1C[C@@H](Oc2nccc3cc(OC(C)C)ccc23)CN1C(=O)[C@@H](NC(=O)OC(C)(C)C)C(C)(C)C)C(=O)NS(=O)(=O)C1CC1` (stereo partly drawn) [Compound 192, BOCNH-P3(L-tert-BuGly)-P2[(4R)-(6-isopropoxy isoquinolin-1-oxo)-S-proline]-P1(1R,2S Vinyl Acca)-CONHSO2-Cyclopropane] has an IC50 [1, 3] of less than 100 nM and an EC50 ([2]; Hepatitis C virus, Huh-7) of less than 100 nM.
Work on `C=C[C@@H]1C[C@]1(NC(=O)[C@@H]1C[C@@H](Oc2nc(-c3cnccn3)cc3ccccc23)CN1C(=O)[C@@H](NC(=O)OC(C)(C)C)C(C)(C)C)C(=O)NS(=O)(=O)C1CC1` [Compound 31] yielded an IC50 [1, 3] of less than 100 nM and an EC50 ([2]; Hepatitis C virus, Huh-7) of less than 100 nM.
`C=C[C@@H]1C[C@]1(NC(=O)[C@@H]1C[C@@H](Oc2nc(-c3cc(OC)no3)cc3cc(OC)ccc23)CN1C(=O)[C@@H](NC(=O)OC(C)(C)C)C(C)(C)C)C(=O)NS(=O)(=O)C1CC1` [Compound 38] showed an IC50 [1, 3] of less than 100 nM and an EC50 ([2]; Hepatitis C virus, Huh-7) of less than 100 nM.
In the case of `C=CC1C[C@]1(NC(=O)[C@@H]1C[C@@H](Oc2ccnc3c(F)cccc23)CN1C(=O)[C@@H](NC(=O)OC(C)(C)C)C(C)(C)C)C(=O)NS(=O)(=O)C1CC1` (stereo partly drawn) [Compound 241, BOCNH-P3(L-t-BuGly)-P2[(4R)-(8-fluoroquinoline-4-oxo)-S -proline]-P1(1R,2S VinylAcca)-CONHSO2Cyclopropane], the IC50 [1, 3] is reported as less than 100 nM and the EC50 ([2]; Hepatitis C virus, Huh-7) is reported as less than 100 nM.
`C=C[C@@H]1C[C@]1(NC(=O)[C@@H]1C[C@@H](Oc2ncc(Cl)c3cc(OC)ccc23)CN1C(=O)[C@@H](NC(=O)OC(C)(C)C)C(C)(C)C)C(=O)NS(=O)(=O)C1CC1` [Compound 278] gave an IC50 [1, 3] of less than 100 nM and an EC50 ([2]; Hepatitis C virus, Huh-7) of less than 100 nM.
With `C=C[C@@H]1C[C@]1(NC(=O)[C@@H]1C[C@@H](Oc2cc(-c3ccccc3)nc(-c3ccc(OC)cc3)c2)CN1C(=O)[C@@H](NC(=O)OC(C)(C)C)C(C)(C)C)C(=O)NS(=O)(=O)C1CC1` [Compound 414] the IC50 [1, 3] was less than 100 nM and the EC50 ([2]; Hepatitis C virus, Huh-7) was less than 100 nM.
`C=CC1CC1(NC(=O)[C@@H]1C[C@@H](Oc2cc(C(F)(F)F)nc3nc(C)ccc23)CN1C(=O)[C@@H](NC(=O)OC(C)(C)C)C(C)(C)C)C(=O)NS(=O)(=O)C1CC1` (some centres unmarked) [Compound 8] showed an IC50 [1, 3] of 100 to 1000 nM and an EC50 ([2]; Hepatitis C virus, Huh-7) of 1000 to 10000 nM.
`C=C[C@@H]1C[C@]1(NC(=O)[C@@H]1C[C@@H](Oc2nccc3c(Cl)cccc23)CN1C(=O)[C@@H](NC(=O)OC(C)(C)C)C(C)(C)C)C(=O)NS(=O)(=O)C1CC1` [Compound 254] was tested, and the IC50 [1, 3] was less than 100 nM and the EC50 ([2]; Hepatitis C virus, Huh-7) was less than 100 nM.
`C=C[C@@H]1C[C@]1(NC(=O)[C@@H]1CC(Oc2nccc3cc(OC)ccc23)CN1C(=O)[C@@H](NC(=O)N(C)C(C)(C)C)C(C)(C)C)C(=O)NS(=O)(=O)C1CC1` (some centres unmarked) [Compound 77] showed an IC50 [1, 3] of less than 100 nM and an EC50 ([2]; Hepatitis C virus, Huh-7) of 100 to 1000 nM.
With `C=CC1C[C@]1(NC(=O)[C@@H]1C[C@@H](Oc2nncc3ccccc23)CN1C(=O)[C@@H](NC(=O)OC(C)(C)C)C(C)(C)C)C(=O)NS(=O)(=O)C1CC1` (stereo partly drawn) [Compound 194, BOCNH-P3(L-tert-BuGly)-P2[(4R)-(phthalazine-1-oxo)-S-proline]-P1(1R,2S Vinyl Acca)-CONHSO2-Cyclopropane] the IC50 [1, 3] was less than 100 nM and the EC50 ([2]; Hepatitis C virus, Huh-7) was 100 to 1000 nM.
`C=CC1C[C@]1(NC(=O)[C@@H]1C[C@@H](Oc2nc(-c3cccnc3)cc3cc(OC)ccc23)CN1C(=O)[C@@H](NC(=O)OC(C)(C)C)C(C)(C)C)C(=O)NS(=O)(=O)C1CC1` (some centres unmarked) [Compound 328] showed an IC50 [1, 3] of less than 100 nM and an EC50 ([2]; Hepatitis C virus, Huh-7) of less than 100 nM.
In the case of `C=C[C@@H]1C[C@]1(NC(=O)[C@@H]1C[C@@H](Oc2nccc3ccc(C)cc23)CN1C(=O)[C@@H](NC(=O)OC(C)(C)C)C(C)(C)C)C(=O)NS(=O)(=O)C1CC1` [Compound 259], the IC50 [1, 3] is reported as less than 100 nM and the EC50 ([2]; Hepatitis C virus, Huh-7) is reported as less than 100 nM.
In the case of `C=C[C@@H]1C[C@]1(NC(=O)[C@@H]1C[C@@H](Oc2cc(C)nc(-c3ccccc3)c2)CN1C(=O)[C@@H](NC(=O)OC(C)(C)C)C(C)(C)C)C(=O)NS(=O)(=O)C1CC1` [Compound 437], the IC50 [1, 3] is reported as less than 100 nM and the EC50 ([2]; Hepatitis C virus, Huh-7) is reported as 100 to 1000 nM.
